# Structures can show the parent of a compound that is named as a salt. Where two headings read alike, the source gives them in different places.
# System: Bmi-1 protein
# Assay: Sandwich ELISA Assay (Bmi-1 protein level in HT-1080 cells after compound treatment)
# Type: cell-based
# Outline: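 HT-1080 cells exposed to compounds for 40–48 h at 37 °C (0.5% DMSO final), then lysed. Bmi-1 in lysates measured by sandwich ELISA (mouse monoclonal capture, rabbit anti-Bmi-1 detection, HRP anti-rabbit, TMB), read at OD450 with OD570 reference against a recombinant Bmi-1 standard curve (0–8000 pg/mL).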
# [1] = Table 1, Bmi-1 sandwich ELISA, read-out: ELISA EC50 value for Bmi-1 protein
EC50 [1] [µM],Structure (SMILES),"EC50 (read-out: ELISA EC50 value for Bmi-1 protein, Table 1, Bmi-1 sandwich ELISA) [µM]"
0.01 to 0.1,"COc1nc2ccccc2n1-c1cncc(Nc2ccc(C(F)(F)F)cc2)n1 [compound 77, 6-(2-methoxy-1H-benzimidazol-1-yl)-N-[4-(trifluoromethyl)phenyl]pyrazin-2-amine]",
0.1 to 3,"CC(=O)O[C@@H](C)c1nc2ccccc2n1-c1cncc(Nc2ccc(C(F)(F)F)cc2)n1 [compound 78, (1S)-1-[1-(6-{[4-(trifluoromethyl)phenyl]amino}pyrazin-2-yl)-1H-benzimidazol-2-yl]ethyl acetate]",
0.01 to 0.1,"CCSc1nc2ccccc2n1-c1cncc(Nc2ccc(C(F)(F)F)cc2)n1 [compound 79, 6-[2-(ethylsulfanyl)-1H-benzimidazol-1-yl]-N-[4-(trifluoromethyl)phenyl]pyrazin-2-amine]",
0.1 to 3,"CCCCc1nc2ccccc2n1-c1cncc(Nc2ccc(C(F)(F)F)cc2)n1 [compound 80, 6-(2-butyl-1H-benzimidazol-1-yl)-N-[4-(trifluoromethyl)phenyl]pyrazin-2-amine]",
0.1 to 3,"CCOc1nc2ccccc2n1-c1cncc(Nc2ccc(C(F)(F)F)cc2)n1 [compound 81, 6-(2-ethoxy-1H-benzimidazol-1-yl)-N-[4-(trifluoromethyl)phenyl]pyrazin-2-amine]",
0.01 to 0.1,"Cc1nc2ncccc2n1-c1cncc(Nc2ccc(C(F)(F)F)cc2)n1 [compound 82, 6-(2-methyl-1H-imidazo[4,5-b]pyridin-1-yl)-N-[4-(trifluoromethyl)phenyl]pyrazin-2-amine]",
0.01 to 0.1,"CCc1nc2ncccc2n1-c1cncc(Nc2ccc(C(F)(F)F)cc2)n1 [compound 83, 6-(2-ethyl-1H-imidazo[4,5-b]pyridin-1-yl)-N-[4-(trifluoromethyl)phenyl]pyrazin-2-amine]",
0.01 to 0.1,"Cc1nc2ncccc2n1-c1cncc(Nc2ccc(OC(F)F)cc2)n1 [compound 85, N-[4-(difluoromethoxy)phenyl]-6-(2-methyl-1H-imidazo[4,5-b]pyridin-1-yl)pyrazin-2-amine]",
0.01 to 0.1,"COc1ccc(Nc2cncc(-c3cccc4nc(C5CC5)cn34)n2)cc1 [compound 86, 6-(2-cyclopropylimidazo[1,2-a]pyridin-5-yl)-N-(4-methoxyphenyl)pyrazin-2-amine]",
0.1 to 3,"FC1(F)Oc2ccc(Nc3cncc(-c4cccc5nc(C6CC6)cn45)n3)cc2O1 [compound 88, 6-(2-cyclopropylimidazo[1,2-a]pyridin-5-yl)-N-(2,2-difluoro-1,3-benzodioxol-5-yl)pyrazin-2-amine]",
,"FC(F)Oc1ccc(Nc2cncc(-c3cccc4nc(C5CC5)cn34)n2)cc1 [compound 90, 6-(2-cyclopropylimidazo[1,2-a]pyridin-5-yl)-N-[4-(difluoromethoxy)phenyl]pyrazin-2-amine]",0.01 to 0.1
0.1 to 3,"FC1(F)Oc2ccc(Nc3cncc(-c4c(C(F)(F)F)nn5ccccc45)n3)cc2O1 [compound 92, N-(2,2-difluoro-1,3-benzodioxol-5-yl)-6-[2-(trifluoromethyl)pyrazolo[1,5-a]pyridin-3-yl]pyrazin-2-amine]",
0.01 to 0.1,"FC(F)(F)c1ccc(Nc2cncc(-c3c(C(F)(F)F)nc4cnccn34)n2)cc1 [compound 93, 6-[2-(trifluoromethyl)imidazo[1,2-a]pyrazin-3-yl]-N-[4-(trifluoromethyl)phenyl]pyrazin-2-amine]",
0.1 to 3,"CCc1nc2ncncc2n1-c1cncc(Nc2ccc(C(F)(F)F)cc2)n1 [compound 94, 6-(8-ethyl-7H-purin-7-yl)-N-[4-(trifluoromethyl)phenyl]pyrazin-2-amine]",
0.01 to 0.1,"Cc1nc2ncccc2n1-c1cncc(Nc2ccc(OC(F)(F)F)cc2)n1 [compound 95, 6-(2-methyl-1H-imidazo[4,5-b]pyridin-1-yl)-N-[4-(trifluoromethoxy)phenyl]pyrazin-2-amine]",
0.1 to 3,"Cc1cc(Nc2cncc(-c3c(C(F)(F)F)nc4ccccn34)n2)on1 [compound 97, N-(3-methyl-1,2-oxazol-5-yl)-6-[2-(trifluoromethyl)imidazo[1,2-a]pyridin-3-yl]pyrazin-2-amine]",
0.01 to 0.1,"C[C@H](O)c1nc2ccccc2n1-c1cncc(Nc2ccc(C(F)(F)F)cc2)n1 [compound 98, (1S)-1-[1-(6-{[4-(trifluoromethyl)phenyl]amino}pyrazin-2-yl)-1H-benzimidazol-2-yl]ethanol]",
0.1 to 3,"FC(F)(F)Oc1ccc(Nc2cccc(-c3c(C(F)(F)F)nc4ncccn34)n2)cc1 [compound 99, N-[4-(trifluoromethoxy)phenyl]-6-[2-(trifluoromethyl)imidazo[1,2-a]pyrimidin-3-yl]pyridin-2-amine]",
0.01 to 0.1,"COc1ccc2nc(C(F)(F)F)c(-c3cccc(Nc4ccc(OC(F)(F)F)cc4)n3)n2c1 [compound 101, 6-[6-methoxy-2-(trifluoromethyl)imidazo[1,2-a]pyridin-3-yl]-N-[4-(trifluoromethoxy)phenyl]pyridin-2-amine]",
0.01 to 0.1,"COc1ccc2nc(C(F)(F)F)c(-c3cccc(Nc4ccc(C(F)(F)F)cc4)n3)n2c1 [compound 102, 6-[6-methoxy-2-(trifluoromethyl)imidazo[1,2-a]pyridin-3-yl]-N-[4-(trifluoromethyl)phenyl]pyridin-2-amine]",
0.01 to 0.1,"COc1ccc2nc(C(F)(F)F)c(-c3cccc(Nc4ccc(OC(F)F)cc4)n3)n2c1 [compound 103, N-[4-(difluoromethoxy)phenyl]-6-[6-methoxy-2-(trifluoromethyl)imidazo[1,2-a]pyridin-3-yl]pyridin-2-amine]",
0.01 to 0.1,"Cc1nn(C)c(C)c1-c1cncc(Nc2ccc(OC(F)(F)F)cc2)n1 [compound 105, N-[4-(trifluoromethoxy)phenyl]-6-(1,3,5-trimethyl-1H-pyrazol-4-yl)pyrazin-2-amine]",
< 0.001,"Cc1nn(C)c(C)c1-c1cncc(Nc2ccc(Br)cc2)n1 [compound 106, N-(4-bromophenyl)-6-(1,3,5-trimethyl-1H-pyrazol-4-yl)pyrazin-2-amine]",
0.01 to 0.1,"FC(F)Oc1ccc(Nc2cccc(-c3c(C(F)(F)F)nc4ncccn34)n2)cc1 [compound 108, N-[4-(difluoromethoxy)phenyl]-6-[2-(trifluoromethyl)imidazo[1,2-a]pyrimidin-3-yl]pyridin-2-amine]",
0.1 to 3,"Oc1ccc2nc(C(F)(F)F)c(-c3cccc(Nc4ccc(OC(F)(F)F)cc4)n3)n2c1 [compound 110, 3-(6-{[4-(trifluoromethoxy)phenyl]amino}pyridin-2-yl)-2-(trifluoromethyl)imidazo[1,2-a]pyridin-6-ol]",
0.01 to 0.1,"Oc1ccc2nc(C(F)(F)F)c(-c3cccc(Nc4ccc(C(F)(F)F)cc4)n3)n2c1 [compound 111, 2-(trifluoromethyl)-3-(6-{[4-(trifluoromethyl)phenyl]amino}pyridin-2-yl)imidazo[1,2-a]pyridin-6-ol]",
0.1 to 3,"COc1ccc2nc(C(F)(F)F)c(-c3cccc(Nc4ccc(OC=O)cc4)n3)n2c1 [compound 112, 4-({6-[6-methoxy-2-(trifluoromethyl)imidazo[1,2-a]pyridin-3-yl]pyridin-2-yl}amino)phenyl formate]",
0.1 to 3,"COc1ccc2nc(C(F)(F)F)c(-c3cccc(Nc4ccc(O)cc4)n3)n2c1 [compound 113, 4-({6-[6-methoxy-2-(trifluoromethyl)imidazo[1,2-a]pyridin-3-yl]pyridin-2-yl}amino)phenol]",
